{
  "source": "patent US20120058133A1",
  "about": "“INHIBITION OF TRNA SYNTHETASES AND THERAPEUTIC APPLICATIONS THEREOF” (President and Fellows of Harvard College, priority 2009, published 2012)",
  "key": {"[1]": {"system": "murine CD4+ CD25− T cells", "assay": "Th17 differentiation of activated CD4+ CD25− T cells (TGFβ plus IL-6; IL-17+ IFNγ− cells)", "type": "cell-based, mouse", "details": "for reversal of Th17 inhibition by threonine: 6 nM borrelidin, 0.5 mM threonine", "protocol": "(§1) Purified CD4^+ CD25^− T cells were activated in vitro as previously described (Djuretic et al., Nat. Immunol. 8:145, 2007) using 0.3 μg/ml hamster anti-mouse CD3 (clone 145-2C11) (ATCC—Manassas, Va.) and 0.5 μg/ml hamster anti-mouse CD28 (BD Pharmingen—San Jose, Calif.). Activated cell cultures were differentiated using the following combinations of cytokines and antibodies: iTreg-recombinant human TGFβ1 (3 ng/ml—R&D systems, Minneapolis, Minn.), Th17-TGFβ1 (3 ng/ml) plus recombinant mouse IL-6 (30 ng/ml—R&D systems). Th1 and Th2 differentiation was performed as previously described (Djuretic et al., Nat. Immunol. 8:145, 2007). Human IL-2 supernatant (National Cancer Institute) was used in culture at 0.01 U/ml and was added at 48 hours-post activation when T cells were split into tissue culture wells lacking CD3 and CD28 antibodies, with the exception of Th17 cultures that were maintained in the absence of exogenous IL-2. CD8^+ T cells were activated with 1 μg/ml anti-CD3 and 1 μg/ml anti-CD28 and were expanded in 0.1 U/ml IL-2 until day 6 post activation. CD43-depleted B cells were activated in vitro by culturing with 25 μg/ml LPS (Sigma—St. Louis, Mo.) for 3-4 days in the presence or absence of TGFβ. All reagents (see below) were added at the time of T cell activation and again at 48 hours post activation unless indicated otherwise. For some experiments, purified CD4^+ CD25^− T cells, CD8^+ T cells or B cells were labeled with 1 μM CFSE (Invitrogen) prior to activation in accordance with manufacturer's instructions. Human T cell activation was performed by plating purified monocytes in a 96-well flat bottom plate at a concentration of 2×10^4 cells per well in complete medium overnight. 10^5 purified human memory T cells were added to monocyte cultures in the presence of soluble anti-CD3/anti-CD28 beads (Dynabeads, Invitrogen). T cells were expanded in the presence HF or MAZ1310 for up to 6 days.\nMAZ1310 (Kamberov, Ph.D. Dissertation, Harvard University, 2008) was generated by chemical derivatization of halofuginone and was used at equal concentrations as a negative control. HF and MAZ1310 were prepared as 100 mM stock solutions in DMSO and diluted to the indicated concentrations. SB-431542 (Inman et al., Mol. Pharmacol. 62:65, 2002) (Tocris bioscience—Ellisville, Mo.) was prepared as a 10 mM stock solution in DMSO and was used in culture at 10 μM. L-tryptophanol was prepared as a 20 mM stock solution in 0.1 M NaOH, pH 7.4 and was used at 0.2 mM. For amino acid starvation experiments, T cells were activated and differentiated as above in D-MEM medium without L-cysteine and L-methionine (Invitrogen—Carlsbad, Calif.), or D-MEM medium without L-leucine. Stocks containing 20 mM L-cysteine (Sigma—St. Louis, Mo.) plus 10 mM L-methionine (Sigma), or 400 mM L-leucine (Sigma) were prepared in ddH2O, pH 1.0 and were added to medium at the indicated concentrations.\n(§2) For detection of intracellular cytokines in murine cells, cultured T or B cells were stimulated with 10 nM PMA (Sigma) and […] (Sigma) for 4-5 hours in the presence of 10 mM brefeldin A (Sigma). Stimulated cells were harvested, washed with PBS and fixed with PBS plus 4% paraformaldehyde at room temperature for 20 minutes. Cells were then washed with PBS, permeabilized with PBS supplemented with 1% BSA and 0.5% saponin (Sigma) at room temperature for 10 minutes before cytokine-specific antibodies were added and incubated with cells for an additional 20 minutes at room temperature."}, "[2]": {"system": "murine CD4+ CD25− T cells, CD8+ T cells, B cells", "assay": "T and B cell activation, proliferation, cytokine production and Th1/Th2/iTreg differentiation", "type": "cell-based, mouse", "details": "3 ng/ml Borrelidin", "protocol": "FIG. 2A, Left, is a graph showing dose response analyses performed on activated carboxyfluorescein succinimidyl ester (CFSE)-labeled CD4^+CD25^− T cells in the presence of DMSO, 40 nM MAZ1310, or increasing concentrations of halofuginone (HF) (1.25-40 nM). CFSE dilution and cell surface CD25 expression were determined 48 hours after activation. Intracellular cytokine production was determined on day 4 or 5 following restimulation with phorbol myristate acetate (PMA) and ionomycin. […] FIG. 2A, Right is a graph showing dose-response analyses of HF effects on CD8^+ T cell or B cell function. Cells were activated in the presence of DMSO, 40 nM MAZ1310, or increasing concentrations of HF (1.25-40 nM). CFSE dilution, cell surface CD25 expression, and intracellular cytokine production were determined as above 2-5 days after activation.\nAt approximately 10-fold higher concentrations (>20 nM), HF induced a general inhibition of T and B cell activation, proliferation, and effector function (FIG. 2A, 2B).\nas §1\nCytokines secreted into media supernatant were measured using the mouse Th1/Th2 cytometric bead array (CBA—BD Pharmingen) in accordance with manufacturers instructions. Briefly, CD4+ CD25− T cells were activated in anti-CD3/anti-CD28-coated tissue culture wells (see above) and supernatants were collected at the indicated times.\nas §2, with “temperature. […]” for “temperature.”"}, "[3]": {"system": "GCN2 phosphorylation / AAR pathway", "assay": "AAR pathway activation in MEFs (GCN2, eIF2a phosphorylation, CHOP)", "type": "cell-based, mouse", "protocol": "FIG. 24. Activation of the AAR in cells by HF/FF occurs through inhibition of proline utilization. FIG. 24A is a gel showing HF-induction of the AAR pathway is reversed by proline. MEFs were treated with the indicated concentration of HF or FF in the presence or absence of 2 mM Proline for 2 hours (left) or treated with 1 μM borrelidin in the presence or absence of 2 mM Threonine for 2 hours (right). Cells were lysed and assessed by anti-pGCN2 or anti-GCN2 Western blot. Data are representative of three separate experiments.\nFIG. 24B is a gel showing HF induction of eIF2a phosphorylation and CHOP expression is GCN2 dependent. Wild Type or GCN2−/− MEFs were treated with 50 nM HF in the presence or absence of 2 mM proline. Cells were lysed at 2 hours post-HF addition (peIF2a) or 6 hours post-HF addition (CHOP) and analyzed for phosphoprotein or total protein levels by Western blot."}, "[4]": {"system": "mouse and human fibroblasts", "assay": "Collagen protein production in mouse and human fibroblasts", "type": "cell-based", "details": "data not shown"}},
  "note": "“Also recorded” adds a separate entry of the source.",
  "data": [
    {"smiles": "C[C@@H]1C[C@H](C)C[C@H](C)[C@@H](O)CC(=O)O[C@H]([C@@H]2CCC[C@H]2C(=O)O)C/C=C/C=C(/C#N)[C@H](O)[C@@H](C)C1", "note": "[borrelidin]", "values": [
      {"measurement": "Th17 cell differentiation", "setting": "[1]; 6 nM (3 ng/mL) borrelidin", "result": "Selectively Inhibits Th17 Differentiation; also recorded: inhibited Th17 cell differentiation"},
      {"measurement": "reversal of Th17 inhibition by threonine", "setting": "[1]", "result": "rescued by its cognate amino acid"},
      {"measurement": "reversal of Th17 inhibition by threonine", "setting": "[1]; listed as Borrelidin", "result": "reversed by the addition of threonine"},
      {"measurement": "differentiation of Th1, Th2, or iTreg cells", "setting": "[2]", "result": "without perturbing the differentiation of Th1, Th2, or iTreg cells"},
      {"measurement": "reversal of GCN2 phosphorylation by cognate amino acid", "setting": "[3]; 2 mM proline or 2 mM threonine", "result": "prevented by addition of an excess of its cognate amino acid threonine"},
      {"measurement": "GCN2 phosphorylation in fibroblasts", "setting": "[3]; 2 hours, borrelidin 1 μM", "result": "stimulate GCN2 phosphorylation"},
      {"measurement": "production of collagen protein", "setting": "[4]", "result": "inhibited by borrelidin-treatment and rescued by the addition of threonine"}
    ]}
  ]
}
